Test results taken from PubChem BioAssay (NCI).
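Five compound concentrations were applied to cells in 96-well plates for 48 hours; endpoints were derived by simple linear interpolation of the resulting dose-response curve. GI50 = concentration required for 50% inhibition of growth. TGI: total growth inhibition.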

Assays:
Test in all cases: NCI-60 cell line screen, 48 h
[1] = test system: SNB-19 CNS
[2] = test system: CAKI-1 renal
[3] = test system: SF-539 CNS
[4] = test system: K-562 leukemia
[5] = test system: HCT-116 colon
[6] = test system: COLO 205 colon
[7] = test system: MDA-MB-231 breast
[8] = test system: OVCAR-5 ovarian
[9] = test system: UACC-62 melanoma
[10] = test system: ACHN renal

## COc1ccc(C(=O)c2cc(OC)c(OC)c(OC)c2)cc1/C=C/C(=O)c1ccc(O)cc1
[1]
  GI50: 4.42 µM
  TGI: 19.7 µM
[2]
  GI50: 3.07 µM
  TGI: 17.3 µM
[3]
  GI50: 2.72 µM
  TGI: 7.9 µM
[4]
  GI50: 0.357 µM
  TGI: > 100 µM
[5]
  GI50: 1.58 µM
  TGI: 3.33 µM
[6]
  GI50: 15.1 µM
  TGI: 36.3 µM
[7]
  GI50: 4.02 µM
  TGI: 24.9 µM
[8]
  GI50: 11.2 µM
  TGI: 25.1 µM
[9]
  GI50: 1.69 µM
  TGI: 3.77 µM
[10]
  GI50: 5.22 µM
  TGI: 21.5 µM

## Clc1ccc(Nc2ccnc(NCCNc3ccnc4cc(Cl)ccc34)n2)cc1
[1]
  GI50: 1.54 µM
  TGI: 3.07 µM
[2]
  GI50: 1.59 µM
  TGI: 3.01 µM
[3]
  GI50: 1.3 µM
  TGI: 2.8 µM
[4]
  GI50: 0.501 µM
  TGI: 1.87 µM
[5]
  GI50: 0.522 µM
  TGI: 2.12 µM
[6]
  GI50: 1.31 µM
  TGI: 2.92 µM
[7]
  GI50: 1.59 µM
  TGI: 3.31 µM
[8]
  GI50: 1.16 µM
  TGI: 2.45 µM
[9]
  GI50: 1.69 µM
  TGI: 3.17 µM
[10]
  GI50: 1.63 µM
  TGI: 3.09 µM

## OCc1ccc(N(Cc2ccc(F)cc2)C2CCC2)cc1Cl
[1]
  GI50: 13.8 µM
  TGI: 27.5 µM
[2]
  GI50: 0.619 µM
  TGI: 4.02 µM
[3]
  GI50: 16.7 µM
  TGI: 31.3 µM
[4]
  GI50: 1.01 µM
  TGI: 15 µM
[5]
  GI50: 0.115 µM
  TGI: 3.73 µM
[6]
  GI50: 3.5 µM
  TGI: 11.5 µM
[7]
  GI50: 14.9 µM
  TGI: 28.6 µM
[8]
  GI50: 0.106 µM
  TGI: 0.495 µM
[9]
  GI50: 0.124 µM
  TGI: 0.846 µM
[10]
  GI50: 13.2 µM
  TGI: 26.4 µM

## O=C1NC(=O)C2=C1CCC2O (stereo not drawn)
[1]
  TGI: > 100 µM
[2]
  TGI: > 100 µM
[3]
  TGI: > 100 µM
[4]
  TGI: > 100 µM
[5]
  TGI: > 100 µM
[6]
  TGI: > 100 µM
[7]
  TGI: > 100 µM
[8]
  TGI: > 100 µM
[9]
  TGI: > 100 µM
[10]
  TGI: > 100 µM

## COc1ccc(-c2nc3sccn3c2/C=C/C(=O)c2cc(OC)c(OC)c(OC)c2)cc1OC
[1]
  GI50: 2.45 µM
  TGI: 6.3 µM
[2]
  GI50: 3.01 µM
  TGI: > 100 µM
[3]
  GI50: 1.78 µM
  TGI: 3.74 µM
[4]
  GI50: 2.41 µM
  TGI: > 100 µM
[5]
  GI50: 2.31 µM
  TGI: 6.44 µM
[6]
  GI50: 2.41 µM
  TGI: 5.98 µM
[7]
  GI50: 2.87 µM
  TGI: 27.7 µM
[8]
  GI50: 2.45 µM
  TGI: 7.02 µM
[9]
  GI50: 2.15 µM
  TGI: 5.55 µM
[10]
  GI50: 3.24 µM
  TGI: > 100 µM

## COc1ccc2c(CN3CCC(CO)CC3)cc3cc4c(cc3c2c1)OCO4
[1]
  GI50: 0.392 µM
  TGI: 12.1 µM
[2]
  GI50: 0.289 µM
  TGI: 3.42 µM
[3]
  GI50: 0.254 µM
  TGI: 1.64 µM
[4]
  GI50: 0.15 µM
  TGI: 3.07 µM
[5]
  GI50: 0.069 µM
  TGI: 0.529 µM
[6]
  GI50: 0.122 µM
  TGI: 1.07 µM
[7]
  GI50: 1.35 µM
  TGI: 12.3 µM
[8]
  GI50: 0.344 µM
  TGI: 10.6 µM
[9]
  GI50: 0.235 µM
  TGI: 0.539 µM
[10]
  GI50: 0.0825 µM
  TGI: 0.45 µM

## O=C1C(Cl)=C(Oc2ccccc2)C(=O)c2ccccc21
[1]
  GI50: 4.11 µM
  TGI: 17.4 µM
[2]
  GI50: 1.8 µM
  TGI: 4.03 µM
[3]
  GI50: 5.96 µM
  TGI: 14.2 µM
[4]
  GI50: 3.17 µM
  TGI: > 100 µM
[5]
  GI50: 1.82 µM
  TGI: 3.41 µM
[6]
  GI50: 1.68 µM
  TGI: 3.24 µM
[7]
  GI50: 6.51 µM
  TGI: 21.1 µM
[8]
  GI50: 16.7 µM
  TGI: 31.7 µM
[9]
  GI50: 3.46 µM
  TGI: 11.7 µM
[10]
  GI50: 1.63 µM
  TGI: 3.14 µM

## O=C(CSc1nc2ccc([N+](=O)[O-])cc2[nH]1)Nc1cccc(C(F)(F)F)c1
[1]
  GI50: 2.71 µM
  TGI: 12.7 µM
[2]
  GI50: 1.76 µM
  TGI: 7.15 µM
[3]
  GI50: 2.9 µM
  TGI: 11.7 µM
[4]
  GI50: 2.16 µM
  TGI: > 39.8 µM
[5]
  GI50: 2.69 µM
  TGI: 12.1 µM
[6]
  GI50: 1.71 µM
  TGI: 3.47 µM
[7]
  GI50: 2.13 µM
  TGI: 6.65 µM
[8]
  GI50: 2.62 µM
  TGI: 11.1 µM
[9]
  GI50: 1.1 µM
  TGI: 8.85 µM
[10]
  GI50: 2.42 µM
  TGI: 8.21 µM

## Nc1nc(SCC(=O)O)[nH]c(=O)c1N
[1]
  TGI: > 100 µM
[2]
  TGI: > 100 µM
[3]
  TGI: > 100 µM
[4]
  TGI: 36.9 µM
[5]
  TGI: > 100 µM
[6]
  TGI: > 100 µM
[7]
  TGI: > 100 µM
[8]
  TGI: > 100 µM
[9]
  TGI: > 100 µM
[10]
  TGI: > 100 µM

## O=C(Nc1cccc(NS(=O)(=O)c2ccc(F)cc2)c1)c1ccc(-c2ccccc2)cc1
[1]
  GI50: 3.4 µM
  TGI: > 100 µM
[2]
  GI50: 3.74 µM
  TGI: > 100 µM
[3]
  GI50: 3.42 µM
  TGI: 12.8 µM
[4]
  GI50: 2.91 µM
  TGI: 24.7 µM
[5]
  GI50: 3.48 µM
  TGI: 13.4 µM
[6]
  GI50: 3.23 µM
  TGI: 11.4 µM
[7]
  GI50: 3.61 µM
  TGI: 18 µM
[8]
  GI50: 7.84 µM
  TGI: 75.8 µM
[9]
  GI50: 1.63 µM
  TGI: 6.68 µM
[10]
  GI50: 3.65 µM
  TGI: 42.7 µM

## CC(C)SC1SCC2C(=O)N(C)C3(CC3C)C(=O)OCC(NC(=O)c3nc4ccccc4cc3O)C(=O)NC(C)C(=O)N(C)C1C(=O)N(C)C1(CC1C)C(=O)OCC(NC(=O)c1nc3ccccc3cc1O)C(=O)NC(C)C(=O)N2C (stereo not drawn)
[2]
  TGI: 0.00028 µM
[3]
  TGI: < 0.0001 µM
[4]
  TGI: < 0.0001 µM
[5]
  TGI: > 100 µM
[6]
  TGI: < 0.0001 µM
[7]
  TGI: > 100 µM
[9]
  TGI: < 0.0001 µM
[10]
  TGI: > 100 µM
